Test results published in ChEMBL document CHEMBL1909046, “DrugMatrix in vitro pharmacology data”.

What was measured:
[1] = target: T1, Alpha-1B adrenergic receptor (Rattus norvegicus, UniProt P15823); experiment: DRUGMATRIX: Alpha-1B adrenergic receptor radioligand binding (ligand: prazosin); format: cell membranes, Wistar, Liver, Membrane; details: Not Active = under 50% inhibition at 10 µM
T1 sequence (P15823 whole entry): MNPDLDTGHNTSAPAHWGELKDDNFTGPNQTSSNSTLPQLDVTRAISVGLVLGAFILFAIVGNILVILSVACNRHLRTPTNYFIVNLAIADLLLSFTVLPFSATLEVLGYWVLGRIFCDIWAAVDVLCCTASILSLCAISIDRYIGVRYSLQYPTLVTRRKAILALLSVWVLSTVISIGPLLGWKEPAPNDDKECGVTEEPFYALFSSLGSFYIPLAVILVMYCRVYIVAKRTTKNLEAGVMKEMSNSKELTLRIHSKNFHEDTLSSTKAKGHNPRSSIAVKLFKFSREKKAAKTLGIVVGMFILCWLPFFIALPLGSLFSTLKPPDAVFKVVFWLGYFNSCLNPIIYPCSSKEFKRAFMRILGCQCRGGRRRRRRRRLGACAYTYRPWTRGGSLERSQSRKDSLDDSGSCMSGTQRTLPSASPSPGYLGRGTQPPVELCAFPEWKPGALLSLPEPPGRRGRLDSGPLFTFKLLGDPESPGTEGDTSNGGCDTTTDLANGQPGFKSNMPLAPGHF

[2] = DRUGMATRIX: Platelet-Derived Growth Factor (PDGF) radioligand binding (ligand: [125I] PDGF); format: cell-based; details: nih3t3; Not Active = under 50% inhibition at 10 µM
[3] = target: Cytochrome P450 2C19 (Homo sapiens, UniProt P33261); details: bti-tn-5b1-4; further: in other assays of this panel Not Active means under 50% inhibition at 10 µM
[4] = DRUGMATRIX: Calcium Channel Type L, Dihydropyridine radioligand binding (ligand: [3H] Nitrendipine); format: cell membranes, Rattus norvegicus, Wistar, Cerebral cortex, Membrane; details: Not Active = under 50% inhibition at 10 µM
[5] = DRUGMATRIX: Sigma2 radioligand binding (ligand: [3H] Ifenprodil); format: cell membranes, Rattus norvegicus, Wistar, Brain, Membrane; details: Not Active = under 50% inhibition at 10 µM
[6] = DRUGMATRIX: Phosphodiesterase PDE4 enzyme inhibition (substrate: [3H]cAMP + cAMP); details: u-937; Not Active = under 50% inhibition at 10 µM
[7] = DRUGMATRIX: Purinergic P2X radioligand binding (ligand: [3H] alpha, beta-Methylene-ATP); format: cell membranes, Oryctolagus cuniculus, New Zealand albino, Urinary bladder, Membrane; details: Not Active = under 50% inhibition at 10 µM
[8] = DRUGMATRIX: beta-Lactamase enzyme inhibition (substrate: Nitrocefin); parameters: species or system Bacillus cereus; details: Not Active = under 50% inhibition at 10 µM

Sequence of Cytochrome P450 2C19 (P33261 whole entry): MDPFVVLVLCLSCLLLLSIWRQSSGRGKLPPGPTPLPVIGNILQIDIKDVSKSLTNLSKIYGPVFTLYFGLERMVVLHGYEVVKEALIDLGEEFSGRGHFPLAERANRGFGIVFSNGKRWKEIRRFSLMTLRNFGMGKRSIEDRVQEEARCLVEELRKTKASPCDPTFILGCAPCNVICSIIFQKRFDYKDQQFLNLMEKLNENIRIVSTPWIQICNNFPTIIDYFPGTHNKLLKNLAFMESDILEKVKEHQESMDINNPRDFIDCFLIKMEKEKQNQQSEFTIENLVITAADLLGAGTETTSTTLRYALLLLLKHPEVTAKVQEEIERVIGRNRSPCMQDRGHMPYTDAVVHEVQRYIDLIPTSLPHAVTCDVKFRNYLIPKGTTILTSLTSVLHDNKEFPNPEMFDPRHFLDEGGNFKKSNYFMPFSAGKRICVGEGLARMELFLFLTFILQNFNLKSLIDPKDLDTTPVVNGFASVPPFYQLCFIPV

ZIRCONIUM(IV) CHLORIDE
Not Active: IC50 [1] | Ki [1] | IC50 [2] | Ki [2] | IC50 [3] | Ki [3] | IC50 [4] | Ki [4] | IC50 [5] | Ki [5] | IC50 [6] | Ki [6] | IC50 [7] | Ki [7] | IC50 [8] | Ki [8]
